Source: patent US11918659B2, “Materials and methods for inducing therapeutic hypothermia in a mammalian subject” (priority 2018, dated 2024)

System: TRPV1-overexpressed HEK293 cells
Settings: FIGS. 1F-1K, tested concentrations 0-5 μM

## CC(C)(C)c1cc2c(O)c(c1)Cc1cc(C(C)(C)C)cc(c1O)Cc1cc(C(C)(C)C)cc(c1O)Cc1cc(C(C)(C)C)cc(c1O)C2 [4-tert-Butylcalix[4]arene]
  toxicity on the cells of the calixarene derivative in the formulation: did not cause any toxicity
